Results: patent US6265617A, “Process for the preparation of 3,5,5-trimethylcyclohexa-3-en-1-one (β-isophorone) by isomerization of 3,5,5- trimethylcyclohexa-2-en-1-one (α-isophorone)” (Degussa-Huls Aktiengesellschaft, priority 1998, dated 2001)

Assay: Catalyst activity in liquid-phase isomerization of α-isophorone to β-isophorone
Conditions: for Rate of formation of β-IP: boiling point, normal pressure, 25 vol.% withdrawal
Description: The apparatus for carrying out the isomerization consists of a mushroom-shaped heater, an isomerization flask with attached distillation column, through which a primary mixture composed of α-IP and β-IP is withdrawn, and a pump for recirculating the unreacted α-isophorone left after the purifying distillation of β-IP. […] The suspension is heated to boiling point at normal pressure and the quantity of the α-IP delivered by a Telab pump is coordinated with the quantity of the distillate withdrawn.
The primary distillate obtained is conveyed to a distillation column operating at a partial vacuum of 5 mbar to 100 mbar. […] The bottom product consisting of unreacted α-isophorone is returned to the isomerization reactor.
Technical sodium hydroxide in various concentrations is stirred into α-IP in the apparatus already described above. With the identical continuous procedure (see Example 1), at the top of the isomerization unit a withdrawal rate of 25 vol.% of a primary distillate is established, based on the quantity of isomerization and the reflux ratio.
Technical potassium carbonate in various concentrations is stirred into α-IP in the apparatus already described above. With the identical continuous procedure (see Example 1), at the top of the isomerization unit a withdrawal rate of 25 vol.% of a primary distillate is established, based on the quantity of isomerization and the reflux ratio.
Various catalysts containing alkali-metal cations are compared with regard to their catalytic activity during the isomerization under conditions corresponding to those in the previous Examples.
Various alkali-metal bases and alkaline-earth bases used as catalysts are compared with regard to their catalytic activity during the isomerization under conditions corresponding to those in the previous Examples.
Various catalysts containing alkali-metal cations and the elements are compared with regard to their catalytic activity during the isomerization under conditions corresponding to those in the previous Examples.

[1] = 2 × 10^-2 mol.% catalyst per mol α-IP
[2] = 0.2 mmol K2CO3 for 1 mol α-IP, illustrative calculation
[3] = 2 × 10^-0 mol.% catalyst per mol α-IP
[4] = 2 × 10^-1 mol.% catalyst per mol α-IP

Row | Compound | Rate of formation of β-IP [1] | further results
1 | [Ca+2].[OH-].[OH-] [Ca(OH)2] | 41.1 g β-IP/h/liter α-IP | 
2 | O=C(O)O [K2 CO3, potassium carbonate] | 73.8 g β-IP/h/liter α-IP | improved space-time yield YR-Z based on the volume of the educt solution used: 80 g β-IP/h per kg α-IP; conversion, β-isophorone per kg of catalyst used and per hour [2]: approximately 422.15 kg; β-IP formation [2]: 74 g β-IP/h/liter; β-IP formation per kg solution [2]: 80.43 g β-IP/h/kg solution; Rate of formation of β-IP [3]: 68.8 g β-IP/h/liter α-IP; Rate of formation of β-IP [4]: 76.4 g β-IP/h/liter α-IP
3 | O=C(O)O [KHCO3] | 64.4 g β-IP/h/liter α-IP | 
4 | [K+].[OH-] [KOH] | 66.9 g β-IP/h/liter α-IP | 
5 | O=C(O)O [Li2 CO3] | 48.3 g β-IP/h/liter α-IP | 
6 | [AlH4-].[Li+] [LiAIH4] | 43.3 g β-IP/h/liter α-IP | 
7 | [BH4-].[Li+] [LiBH4] | 46.1 g β-IP/h/liter α-IP | 
8 | [Li+].[OH-] [LiOH] | 61.3 g β-IP/h/liter α-IP | 
9 | [Mg+2].[OH-].[OH-] [Mg(OH)2] | 8.2 g β-IP/h/liter α-IP | Rate of formation of β-IP [4]: 9.3 g β-IP/h/liter α-IP
10 | O=C(O)O [Na2 CO3, sodium carbonate] | 47.4 g β-IP/h/liter α-IP | calculated yield based on the quantity of catalyst used, Yβ-IP (0.2 mol.% catalyst, continuous operation): 229.7 kg β-IP/h/kgcat.; space-time yield (per hour and quantity of catalyst used) Y (1 mol.% catalyst): 15.357 kg β-IP/h/kg catalyst; space-time yield YR-Z based on α-IP used (1 mol.% catalyst): 0.086 kg β-IP/h/liter; Rate of formation of β-IP [3]: 72 g β-IP/h/liter α-IP
11 | CC(=O)O [Na(CH3 CO2)] | 49.2 g β-IP/h/liter α-IP | 
12 | CO [Na(OMe)] | 46.9 g β-IP/h/liter α-IP | 
13 | O=C(O)O [NaHCO3] | 55.1 g β-IP/h/liter α-IP | 
14 | [H-].[Na+] [NaH] | 58.6 g β-IP/h/liter α-IP | 
15 | [NH2-].[Na+] [NaNH2, sodium amide] | 49.6 g β-IP/h/liter α-IP | 
16 | [Na+].[OH-] [NaOH, sodium hydroxide] | 54.6 g β-IP/h/liter α-IP | Rate of formation of β-IP [4]: 79.5 g β-IP/h/liter α-IP
17 | [Na] [Na] | 53.7 g β-IP/h/liter α-IP | 
18 | O=S(=O)([O-])O.[K+] [kHSO4] | 44.7 g β-IP/h/liter α-IP | 
